Data as given in patent US20070187646A1, “Surface-active amines and methods of using same to impede corrosion” (priority 2006, published 2007).
“And” between values parts separate entries of the source, which are not always exact repeats. Equal entries are not always repeated. “Also recorded” adds a separate entry of the source. Where two headings read alike, the source gives them in different places.

Tests used:
[1] = Quartz crystal microbalance weight loss of amine-treated iron surface in unstirred 0.5 M sodium sulfate solution; conditions: for percent wt. loss: amine-treated iron surface, 6.5 hours in unstirred 0.5 M Na2SO4 (pH=5.8); for time when wt. loss commenced: unstirred 0.5 M Na2SO4 (pH=5.8), 6.5 hours
Protocol: Weightloss measurements were performed by immersing the amine-coated iron surface in 0.5 M sodium sulfate solution (pH=5.8), and comparing the results observed with those obtained in case of an unprotected iron surface. From the results achieved, the following four major conclusions follow:
Table I below correlates the pKa of an amine with the percentage weight loss observed (using the quartz crystal microbalance technique) when the amine-treated iron surface was immersed for 6.5 hours in 0.5 M Na2SO4 solution (pH=5.8). See pKa prediction of organic acids and bases, D. D. Perrin, B. Dempsey, E. P. Serjeant (1981), Chapman and Hall. Physical methods in Heterocyclic Chemistry Vol. 1, A. A. Katritzky (1963), Academic Press.

[2] = as above; conditions: "open" pH 5.9 sulfate solution
[3] = QCM weight loss of amine-treated iron deposit in "open" pH 2.6 sulfate solution
[4] = cited from earlier work
[5] = EQCM amine inhibition of iron corrosion in corrosive phosphate buffer (pH 5.7); conditions: 15 mM amine
From the text: (§1) All the test solutions were buffered so that the effect of pH variation can be eliminated as much as possible. Thus, amine inhibition effectiveness is directly related to the strength of adsorption of the amine and its molecular structure, independent of pH effects. Here, borate buffer (pH 8.4) was used as passivating environment, whereas phosphate buffer (pH 5.7) was used as corrosive environment.
(§2) Plating of iron deposit (1 u thick) onto the polished gold crystal of the QCM electrode was accomplished from a 200 ml aqueous solution with the following composition:
(§3) For the corrosion inhibition studies, the deposit was immersed in a corrosive buffer solution (phosphate, pH 5.7) for 40 min. for equilibration, and then 15 mM amine was added to the solution.
(§4) Deaerated test solutions (no dissolved O2) are prepared by purging the test solutions with argon for 2 hours before the tests and also during the tests.

[6] = Weight loss of AISI 1018 steel coupons exposed to amine containing steam at 250° F.; conditions: 250° F. steam, compared to plain steam
[7] = EQCM amine adsorption on iron in passivating borate buffer (pH 8.4); conditions: 15 mM amine
From the text: as §1, §2
(§5) For adsorption studies, the deposit was immersed in a passivating buffered solution (borate, pH 8.4, prepared as cited above) for 40 rain. for equilibration, after which 15 mM amine was added to the solution. The variation in frequency upon addition of the amine is quantitatively proportional to the amine adsorbed on the surface of the metal (Sauerbrey equation).
as §4

[8] = QCM weight loss of DBU-treated iron deposit in Ar-purged pH 2.6 sulfate solution; conditions: no dissolved oxygen, pH 2.6 sodium sulfate solution
Protocol: This conclusion was arrived at by examining the effect of DBU on the corrosion of iron in Ar-purged (no dissolved oxygen) pH 2.6 (acidic) sodium sulfate solution using the QCM technique, and comparing the results obtained with those recorded in “open” (oxygen containing) pH 2.6 and 5.9 solutions.
The apparatus for the experiments performed under purged conditions (as illustrated in FIG. 6) consists of a 500 ml Pyrex reaction vessel with a 4-necked cover. The reaction vessel and the cover are retained intact together during the experiment with the aid of a horse-shoe clamp. The QCM is inserted through the central neck, after plating the iron deposit onto the crystal. A pH electrode is inserted through one of the necks, and an inlet for Ar gas through the other. The fourth neck is stoppered when not used. The pH 2.6 sulfate solution is purged with Ar gas for 1 hour before exposure of the iron deposit (protected/unprotected) to the environment. See D. D. Perrin, B. Dempsey, E. P. Serjeant, pKa prediction of organic acids and bases, Chapman and Hall, 1981. A. A. Katritzky, Physical methods in Heterocyclic Chemistry Vol. 1, Academic Press, 1963. […]
The DBU-treated iron deposit was immersed in the Ar-purged pH 2.6 solution, and the weightloss and corresponding pH measurements recorded are plotted in FIGS. 7A and 7B. […]

[9] = FTIR phase identification of iron oxides on steel samples exposed to amine containing steam; conditions: for hematite in samples exposed for four hours (FTIR): four hours exposure; for exposure time at which hematite formation was observed (FTIR): steam with 3 ppm DBU or 5 ppm morpholine
From the text: The main purpose of this analysis was to observe the relative delay in magnetite transformation to hematite.
Amorphous crystals will produce a variation in peak width, and a slight shift on IR values (Cornell R., and Schwertmann U., 1996). […] Oxyhydroxides absorption hands are as follows: α-FeOOH is known to have a deep well defined pair of sharp peaks at 890 and 795 cm^−1, γ-FeOOH presents an enunciated and deep peak at 1018 cm^−1. β-FeOOH was not expected to be present in the experiment conditions.
FIGS. 42 and 43 show the FTIR spectra of iron oxides formed on steel samples exposed to steam containing 3 ppm of DBU.
FIGS. 46 and 47 show the FTIR spectra of iron oxides formed on steel samples exposed to steam containing 3 ppm of DMA.

[10] = EQCM aniline inhibition of nickel corrosion in phosphate buffer (pH 5.7); conditions: phosphate buffer pH 5.7, aerated
Protocol: (§6) Plating of black nickel deposit (1 u thick) onto the polished gold crystal of the QCM electrode was accomplished from a 200 ml aqueous solution with the following composition:
as §3

[11] = EQCM aniline adsorption on nickel in borate buffer (pH 8.4); conditions: borate buffer pH 8.4, aerated
Protocol: as §6, §5

[12] = phosphate buffer pH 5.7, aerated
[13] = phosphate buffer pH 5.7, deaerated
[14] = borate buffer pH 8.4, deaerated

Row | Compound | percent wt. loss [1] [%] | time when wt. loss commenced [1] | % wt. loss in pH 5.9 solution [2] [%] | effectiveness as corrosion inhibitor in acidic solution ([3]; "open" pH 2.6 solution) | inhibition of iron corrosion [5, 12] | weight loss / corrosion rate of steel coupons in steam [6] | adsorption on iron surface ([7]; borate buffer pH 8.4, aerated) | adsorption on iron surface [7, 14] | % wt. loss in pH 2.6 solution ([3]; "open" pH 2.6 sulfate solution) [%] | hematite in samples exposed for four hours (FTIR) [9] | other results
1 | COCCCN [3-methoxypropylamine] | 0 | no wt. loss | 0 | not effective inhibitors |  |  |  |  |  |  | % wt. loss in pH 2.6 solution ([3]; "open" pH 2.6 solution, over 60 minutes, probe failed after 60 minutes): 11.19% and 11.19 (probe failed %
2 | NCCCCCO [5-amino-1-pentanol] | 4.106 | 90 min | 4.106 |  |  |  |  |  |  |  | pKa ([4]; Table II, 23° C.): 10.46 (23° C.)
3 | C1CCC2=NCCCN2CC1 [DBU, 1,8-diazabicyclo[5.4.0]undec-7-ene] | 0 | no wt. loss | 0 | good corrosion inhibitors | stops corrosion; also recorded: inhibition | lowest corrosion rate | forms a monolayer initially and then multilayers; also recorded: Adsorption | still can adsorb on the iron surface; also recorded: adsorption | 7.2 | no hematite was detected | inhibition of iron corrosion [5, 13]: none of them can stop the iron corrosion; also recorded: no effect; weightloss in Ar-purged pH 2.6 solution [8]: extensive weightless; exposure time at which hematite formation was observed (FTIR) [9]: 12 h
4 | CCCCNCCCC [N,N-dibutylamine] | 9.3 | 161 minutes, expt. | 9.3 |  |  |  |  |  |  |  | inhibition of iron corrosion ([5]; phosphate buffer pH 5.7, aerated, listed as DBA): oxide growth is noted after its adsorption; also recorded: inhibition; inhibition of iron corrosion ([5]; phosphate buffer pH 5.7, deaerated, listed as DBA): none of them can stop the iron corrosion; also recorded: no effect; adsorption on iron surface ([7]; borate buffer pH 8.4, aerated, listed as DBA): adsorbs on iron surface; also recorded: adsorption; adsorption on iron surface ([7]; borate buffer pH 8.4, deaerated, listed as DBA): still can adsorb on the iron surface; also recorded: adsorption; pKa at 25° C. ([4]; Table I and text): 11.25; pKa at 25° C. ([4]; Table II): 11.25
5 | Nc1ccccc1 [aniline] |  |  |  |  | no effect on inhibition |  | does not have any adsorption | no |  |  | adsorption on iron surface ([7]; borate buffer pH 8.4, aerated, listed as Aniline): no; inhibition of nickel corrosion [10]: inhibition; adsorption on nickel surface [11]: adsorption
6 | CC(C)NC(C)C [diisopropylamine] |  | no wt. loss | 0 | not effective inhibitors |  |  |  |  | 99.23 |  | percent wt. loss ([1]; listed as diisoproplyamine): 0%
7 | CNC [dimethylamine] | 0.793 | 30 min | 0.793 | not effective inhibitors |  | oxidation rates less favorable |  |  | 98.4 | no hematite was detected | 
8 | C1COCCN1 [morpholine] | 8.87 | 110 min | 8.87 |  | slow and weak | oxidation rates less favorable | only weak adsorption; also recorded: little | still can adsorb on the iron surface; also recorded: little |  | some hematite presence | inhibition of iron corrosion [5, 13]: none of them can stop the iron corrosion; exposure time at which hematite formation was observed (FTIR) [9]: started after two hours of exposure
9 | C1CCNCC1 [piperidine] | 0.57 | 350 min | 0.57 | good corrosion inhibitors |  |  |  |  | 10.9 |  | 
